± gives the standard deviation of the averaged measurements.
Tests used:
Assay in all cases: relative cell number vs DMSO control (72 h) (% of DMSO); higher = less growth inhibition (more cells)
Settings in all cases: sgRNA knockout: sgNT
MDA-MB-231 = system: MDA-MB-231
Protocol: (§1)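 QMAP-Seq: a pool of 5 breast cancer cell lines (ZR-75-1, SKBR3, HCC-38, MDA-MB-231, BT-20), each carrying 12 doxycycline-inducible Cas9 sgRNA perturbations (11 knockouts plus non-targeting sgNT), was treated with compounds for 72 h at four 10-fold doses (10 nM-10 uM or 1 nM-1 uM range). Barcodes were amplified and sequenced, and cell number was interpolated from 293T spike-in standard curves. The result is expressed as % of the median of DMSO wells. Two biological replicates.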

ZR-75-1 = system: ZR-75-1
Protocol: as §1

HCC-38 = system: HCC-38
Protocol: as §1

SKBR3 = system: SKBR3
Protocol: as §1

BT-20 = system: BT-20
Protocol: as §1

CC(C)(C#N)c1cc(Cn2cncn2)cc(C(C)(C)C#N)c1 [Anastrozole]
relative cell number (MDA-MB-231; 1 nM): 107 ± 8.8
relative cell number (MDA-MB-231; 10 nM): 110 ± 75
relative cell number (MDA-MB-231; 100 nM): 121 ± 17
relative cell number (MDA-MB-231; 1000 nM): 115 ± 22
relative cell number (ZR-75-1; 1 nM): 76.6 ± 1.4
relative cell number (ZR-75-1; 10 nM): 151 ± 25
relative cell number (ZR-75-1; 100 nM): 100 ± 3.4
relative cell number (ZR-75-1; 1000 nM): 120 ± 17
relative cell number (HCC-38; 1 nM): 106 ± 9.5
relative cell number (HCC-38; 10 nM): 116 ± 3.1
relative cell number (HCC-38; 100 nM): 103 ± 5.8
relative cell number (HCC-38; 1000 nM): 115.2 ± 0.88
relative cell number (SKBR3; 1 nM): 123 ± 23
relative cell number (SKBR3; 10 nM): 90.3 ± 18
relative cell number (SKBR3; 100 nM): 118 ± 17
relative cell number (SKBR3; 1000 nM): 103 ± 13
relative cell number (BT-20; 1 nM): 112 ± 1.8
relative cell number (BT-20; 10 nM): 103 ± 50
relative cell number (BT-20; 100 nM): 116 ± 12
relative cell number (BT-20; 1000 nM): 114 ± 15

CCN1CCN(c2ccc(Nc3cc(N(C)C(=O)Nc4c(Cl)c(OC)cc(OC)c4Cl)ncn3)cc2)CC1 [BGJ398]
relative cell number (MDA-MB-231; 10 nM): 81.7 ± 12
relative cell number (MDA-MB-231; 100 nM): 83.1 ± 16
relative cell number (MDA-MB-231; 1000 nM): 116 ± 2.1
relative cell number (MDA-MB-231; 10000 nM): 65.2 ± 12
relative cell number (ZR-75-1; 10 nM): 77.02 ± 0.32
relative cell number (ZR-75-1; 100 nM): 116 ± 13
relative cell number (ZR-75-1; 1000 nM): 105 ± 14
relative cell number (ZR-75-1; 10000 nM): 78.1 ± 26
relative cell number (HCC-38; 10 nM): 93.6 ± 16
relative cell number (HCC-38; 100 nM): 66.73 ± 0.28
relative cell number (HCC-38; 1000 nM): 60.5 ± 4.7
relative cell number (HCC-38; 10000 nM): 58.5 ± 0.79
relative cell number (SKBR3; 10 nM): 99.1 ± 6.7
relative cell number (SKBR3; 100 nM): 106 ± 32
relative cell number (SKBR3; 1000 nM): 67.6 ± 6.6
relative cell number (SKBR3; 10000 nM): 75 ± 18
relative cell number (BT-20; 10 nM): 80.6 ± 10
relative cell number (BT-20; 100 nM): 104 ± 1.5
relative cell number (BT-20; 1000 nM): 88.5 ± 15
relative cell number (BT-20; 10000 nM): 82.8 ± 18

COC(=O)[C@]12CCC(C)(C)C[C@H]1[C@H]1C(=O)C=C3[C@@]4(C)C=C(C#N)C(=O)C(C)(C)[C@@H]4CC[C@@]3(C)[C@]1(C)CC2 [BardoxoloneMethyl]
relative cell number (MDA-MB-231; 10 nM): 109 ± 22
relative cell number (MDA-MB-231; 100 nM): 66.5 ± 37
relative cell number (MDA-MB-231; 1000 nM): 16.4 ± 11
relative cell number (MDA-MB-231; 10000 nM): 5.3 ± 1.9
relative cell number (ZR-75-1; 10 nM): 74.7 ± 11
relative cell number (ZR-75-1; 100 nM): 49.3 ± 14
relative cell number (ZR-75-1; 1000 nM): 14.3 ± 2.1
relative cell number (ZR-75-1; 10000 nM): 5.42 ± 4.3
relative cell number (HCC-38; 10 nM): 96 ± 7.2
relative cell number (HCC-38; 100 nM): 99.93 ± 0.61
relative cell number (HCC-38; 1000 nM): 26.6 ± 3.4
relative cell number (HCC-38; 10000 nM): 5.24 ± 0.59
relative cell number (SKBR3; 10 nM): 100.4 ± 0.77
relative cell number (SKBR3; 100 nM): 66.6 ± 13
relative cell number (SKBR3; 1000 nM): 7.42 ± 0.66
relative cell number (SKBR3; 10000 nM): 4.14 ± 0.45
relative cell number (BT-20; 10 nM): 73.5 ± 19
relative cell number (BT-20; 100 nM): 66.2 ± 6.3
relative cell number (BT-20; 1000 nM): 16.2 ± 4
relative cell number (BT-20; 10000 nM): 4.97 ± 2.9

Cn1c(CCCC(=O)O)nc2cc(N(CCCl)CCCl)ccc21 [Bendamustine]
relative cell number (MDA-MB-231; 10 nM): 111 ± 13
relative cell number (MDA-MB-231; 100 nM): 123 ± 10
relative cell number (MDA-MB-231; 1000 nM): 95.8 ± 17
relative cell number (MDA-MB-231; 10000 nM): 127 ± 3.8
relative cell number (ZR-75-1; 10 nM): 82.4 ± 11
relative cell number (ZR-75-1; 100 nM): 123 ± 6.9
relative cell number (ZR-75-1; 1000 nM): 63.7 ± 27
relative cell number (ZR-75-1; 10000 nM): 97.9 ± 9.2
relative cell number (HCC-38; 10 nM): 104 ± 6
relative cell number (HCC-38; 100 nM): 103 ± 1.1
relative cell number (HCC-38; 1000 nM): 109 ± 17
relative cell number (HCC-38; 10000 nM): 115 ± 4.3
relative cell number (SKBR3; 10 nM): 86.7 ± 9.2
relative cell number (SKBR3; 100 nM): 115 ± 21
relative cell number (SKBR3; 1000 nM): 118 ± 21
relative cell number (SKBR3; 10000 nM): 109 ± 44
relative cell number (BT-20; 10 nM): 90.6 ± 14
relative cell number (BT-20; 100 nM): 114 ± 25
relative cell number (BT-20; 1000 nM): 112 ± 33
relative cell number (BT-20; 10000 nM): 124 ± 14

C=C(C)[C@@H]1CC[C@]2(C(=O)O)CC[C@]3(C)[C@H](CC[C@@H]4[C@@]5(C)CC[C@H](O)C(C)(C)[C@@H]5CC[C@]43C)[C@@H]12 [BetulinicAcid]
relative cell number (MDA-MB-231; 10 nM): 74.3 ± 2.1
relative cell number (MDA-MB-231; 100 nM): 92.9 ± 11
relative cell number (MDA-MB-231; 1000 nM): 69.8 ± 21
relative cell number (MDA-MB-231; 10000 nM): 117 ± 24
relative cell number (ZR-75-1; 10 nM): 90.9 ± 11
relative cell number (ZR-75-1; 100 nM): 97.1 ± 4.8
relative cell number (ZR-75-1; 1000 nM): 94.5 ± 43
relative cell number (ZR-75-1; 10000 nM): 110 ± 11
relative cell number (HCC-38; 10 nM): 106 ± 10
relative cell number (HCC-38; 100 nM): 82.2 ± 9.4
relative cell number (HCC-38; 1000 nM): 98 ± 32
relative cell number (HCC-38; 10000 nM): 96.4 ± 1.5
relative cell number (SKBR3; 10 nM): 76.3 ± 23
relative cell number (SKBR3; 100 nM): 95 ± 13
relative cell number (SKBR3; 1000 nM): 86 ± 5.5
relative cell number (SKBR3; 10000 nM): 96.4 ± 11
relative cell number (BT-20; 10 nM): 86.7 ± 12
relative cell number (BT-20; 100 nM): 78.6 ± 3.6
relative cell number (BT-20; 1000 nM): 86.4 ± 13
relative cell number (BT-20; 10000 nM): 108 ± 1.7

C=C(c1ccc(C(=O)O)cc1)c1cc2c(cc1C)C(C)(C)CCC2(C)C [Bexarotene]
relative cell number (MDA-MB-231; 10 nM): 146 ± 83
relative cell number (MDA-MB-231; 100 nM): 73.6 ± 3.8
relative cell number (MDA-MB-231; 1000 nM): 95.3 ± 16
relative cell number (MDA-MB-231; 10000 nM): 80.2 ± 31
relative cell number (ZR-75-1; 10 nM): 97.6 ± 34
relative cell number (ZR-75-1; 100 nM): 78.4 ± 27
relative cell number (ZR-75-1; 1000 nM): 72.2 ± 19
relative cell number (ZR-75-1; 10000 nM): 70.3 ± 5.1
relative cell number (HCC-38; 10 nM): 85.51 ± 0.16
relative cell number (HCC-38; 100 nM): 90.4 ± 9
relative cell number (HCC-38; 1000 nM): 94.9 ± 8
relative cell number (HCC-38; 10000 nM): 108 ± 8.4
relative cell number (SKBR3; 10 nM): 107 ± 4.7
relative cell number (SKBR3; 100 nM): 72.8 ± 16
relative cell number (SKBR3; 1000 nM): 71.6 ± 34
relative cell number (SKBR3; 10000 nM): 90 ± 11
relative cell number (BT-20; 10 nM): 122 ± 11
relative cell number (BT-20; 100 nM): 119 ± 25
relative cell number (BT-20; 1000 nM): 112 ± 33
relative cell number (BT-20; 10000 nM): 137 ± 30
